Values after ≈ are worked out from the molar mass of the structure shown.
How the values were obtained:
[1] = test system: clinical isolates carrying AAC(3)-IV; experiment: MIC broth microdilution, AAC(3)-IV; format: cell-based; conditions: for MIC: clinical isolates, IMM Univ. Zurich, AAC(3)-IV, read-out: MIC AAC(3)-IV
Summary of the method: (§1)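 Clinical isolates supplied by the Zurich Institute of Medical Microbiology were tested for MIC (μg/ml) using CLSI M07-A10 broth microdilution.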

[2] = test system: clinical isolates carrying APH(3′)-I; experiment: MIC broth microdilution, APH(3′)-I; format: cell-based; conditions: IMM Univ. Zurich
Source text: (§2) Minimal inhibitory concentrations (MIC) have been determined by broth microdilution assays (CLSI. Methods for Dilution Antimicrobial Susceptibility Tests for Bacteria That Grow Aerobically; Approved Standard—Tenth Edition. CLSI document M07-A10. Wayne, Pa.: Clinical and Laboratory Standards Institute; 2015.).
(§3) Minimal inhibitory concentrations (MICs, […]) against clinical isolates from Institute of Medical Microbiology, Univ. Zurich, and the IC50 values for bacterial, human mitochondrial and human cytosolic ribosomes are indicated.

[3] = test system: clinical isolates carrying APH(3′)-II; experiment: MIC broth microdilution, APH(3′)-II; format: cell-based; conditions: clinical isolates, IMM Univ. Zurich; APH(3′)-II; read-out: MIC APH(3′)-II
Source text: as §2, §3

[4] = test system: clinical isolates carrying APH(3′)-III; experiment: MIC broth microdilution, APH(3′)-III; format: cell-based; conditions: IMM Univ. Zurich
Source text: as §2, §3

[5] = test system: clinical isolates carrying APH(3′)-VI; experiment: MIC broth microdilution, APH(3′)-VI; format: cell-based; conditions: IMM Univ. Zurich
Source text: as §2, §3

bacterial ribosomes = experiment: in-vitro translation assay, bacterial ribosomes; format: biochemical
Summary of the method: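 Inhibitory potency was determined as IC50 in in-vitro translation systems based on bacterial ribosomes, human chimeric (mitochondrial-type) ribosomes or rabbit reticulocyte (cytosolic) ribosomes.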

[6] = test system: human mitochondrial ribosomes; experiment: in-vitro translation assay, human mitochondrial (human chimeric) ribosomes; format: biochemical
Summary of the method: (§4)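 Translation inhibition is measured in vitro with isolated ribosomes, and IC50 derived. The human cytosolic values actually use rabbit reticulocyte ribosomes, and the mitochondrial values use human chimeric ribosomes.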

[7] = test system: human cytosolic ribosomes; experiment: in-vitro translation assay, human cytosolic ribosomes; format: biochemical
Summary of the method: as §4

[8] = test system: AG212, Escherichia coli ATCC25922; experiment: MIC reference strain AG212; format: cell-based; conditions: Escherichia coli; reference strain ATCC25922; read-out: MIC AG212 E. coli
Summary of the method: (§5)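 Broth microdilution per CLSI standard M07-A10 gave the minimal inhibitory concentrations.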

[9] = test system: AG215, Klebsiella pneumonia; experiment: MIC reference strain AG215; format: cell-based; conditions: Klebsiella pneumoniae, reference strain; read-out: MIC AG215 K. pneumonia
Summary of the method: as §5

[10] = test system: AG290, Enterobacter cloacae; experiment: MIC reference strain AG290; format: cell-based; conditions: Enterobacter cloacae; reference strain; read-out: MIC AG290 E. cloacae
Summary of the method: as §5

[11] = test system: AG220, Pseudomonas aeruginosa ATCC27853; experiment: MIC reference strain AG220; format: cell-based; conditions: Pseudomonas aeruginosa, ATCC27853, reference strain ATCC27853; read-out: MIC AG220 P. aeruginosa
Summary of the method: as §5

[12] = test system: AG225, Acinetobacter baumannii pittii; experiment: MIC reference strain AG225; format: cell-based; conditions: Acinetobacter baumannii, reference strain; read-out: MIC AG225 A. baumannii
Summary of the method: as §5

ATCC19977 M. abcessus = experiment: MIC reference strain ATCC19977; format: cell-based; conditions: read-out: MIC ATCC19977 M. abcessus
Summary of the method: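 Susceptibility was tested per CLSI aerobic dilution protocol using microbroth format, with the MIC taken as the end point.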

AG001 E. coli WT = experiment: Antibacterial activity, clinical isolate AG001; format: cell-based; design: unit not given here
Summary of the method: (§6)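 Clinical isolates tested by CLSI M07-A10 broth microdilution, with minimal inhibitory concentration as the read-out.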

AG055 E. coli WT = experiment: Antibacterial activity, clinical isolate AG055; format: cell-based; design: unit not given here
Summary of the method: as §6

AG003 E. coli AAC(3)-II = experiment: Antibacterial activity, clinical isolate AG003; format: cell-based
Summary of the method: as §6

AG173 E. coli AAC(3)-IV = experiment: Antibacterial activity, clinical isolate AG173; format: cell-based
Summary of the method: as §6

AG163 E. coli APH(3′)-I = experiment: Antibacterial activity, clinical isolate AG163; format: cell-based
Summary of the method: as §6

AG038 MRSA = experiment: Antibacterial activity, clinical isolate AG038; format: cell-based; design: unit not given here
Summary of the method: as §6

[13] = test system: AG039 MRSA AAC(6′)-I ANT(4′)-I; experiment: Antibacterial activity, clinical isolate AG039; format: cell-based
Summary of the method: as §6

[14] = test system: AG042 MRSA AAC(6′)-I ANT(4′)-I APH(2′); experiment: Antibacterial activity, clinical isolate AG042; format: cell-based; design: unit not given here
Summary of the method: as §6

AG031 P. aer. APH(3′)-II = experiment: Antibacterial activity, clinical isolate AG031; format: cell-based; design: unit not given here
Summary of the method: as §6

AG032 P. aer. APH(3′)-II = experiment: Antibacterial activity, clinical isolate AG032; format: cell-based; design: unit not given here
Summary of the method: as §6

[15] = test system: AG033 P. aer. APH(3′)-II AAC(6′)-I; experiment: Antibacterial activity, clinical isolate AG033; format: cell-based; design: unit not given here
Summary of the method: as §6

[16] = test system: Engineered E. coli pH430 WT; experiment: Activity, engineered E. coli pH430 WT; format: cell-based; conditions: wild type
Summary of the method: (§7)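 Susceptibility was measured as minimal inhibitory concentration using a standardized broth microdilution protocol (CLSI document M07-A10).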

[17] = test system: Engineered E. coli AG103 armA; experiment: Activity against G1405-methylated 16S-rRNA, E. coli AG103 armA; format: cell-based
Summary of the method: as §7

[18] = test system: Engineered E. coli pH424 armA; experiment: Activity against G1405-methylated 16S-rRNA, E. coli pH424 armA; format: cell-based
Summary of the method: as §7

[19] = test system: Engineered E. coli pH425 rmtB; experiment: Activity against G1405-methylated 16S-rRNA, E. coli pH425 rmtB; format: cell-based
Summary of the method: as §7

[20] = test system: Engineered E. coli pH426 rmtC; experiment: Activity against G1405-methylated 16S-rRNA, E. coli pH426 rmtC; format: cell-based
Summary of the method: as §7

[21] = test system: Engineered E. coli pH427 rmtF; experiment: Activity against G1405-methylated 16S-rRNA, E. coli pH427 rmtF; format: cell-based
Summary of the method: as §7

[22] = test system: APH(3′, 5″) resistance determinant; experiment: Susceptibility to the APH(3′, 5″) resistance determinant; format: cell-based
Source text: as §2
The introduction of a formamido group results in compounds that display increased selectivity for the bacterial ribosome over the mitochondrial (wild type and A1555G mutant) ribosomes, predictive of reduced ototoxicity.

WT clinical isolates = experiment: MIC broth microdilution, WT; format: cell-based; conditions: read-out: MIC WT, clinical isolates, IMM Univ. Zurich; wild type
Summary of the method: as §1

isolates carrying apmA = experiment: MIC broth microdilution, apmA; format: cell-based; conditions: apmA resistance gene
Summary of the method: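 Clinical isolates carrying apmA, from the University of Zurich Institute of Medical Microbiology, were tested by broth microdilution following CLSI M07-A10; values are MICs in μg/ml.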

eukaryotic ribosomes = experiment: in-vitro translation assays, bacterial versus eukaryotic ribosomes; format: biochemical
Source text: IC50 values for bacterial, human chimeric, and rabbit reticulocyte ribosomes have been determined by in-vitro translation assays as described previously (Proc. Nat. Ac. Sci USA 2012, 109(27):10984-10989).

Row | SMILES | MIC [1] [µg/mL] | IC50 (bacterial ribosomes) [nM] | IC50 [6] [µM] | IC50 [7] [µM] | MIC [8] [µg/mL] | MIC [9] [µg/mL] | MIC [10] [µg/mL] | MIC [11] [µg/mL] | MIC [12] [µg/mL] | Antibacterial activity AG001 E. coli WT (AG001 E. coli WT) | Antibacterial activity AG055 E. coli WT (AG055 E. coli WT) | Antibacterial activity AG003 E. coli AAC(3)-II (AG003 E. coli AAC(3)-II) | Antibacterial activity AG173 E. coli AAC(3)-IV (AG173 E. coli AAC(3)-IV) | Antibacterial activity AG163 E. coli APH(3′)-I (AG163 E. coli APH(3′)-I) | Antibacterial activity AG038 MRSA (AG038 MRSA) | Antibacterial activity AG039 MRSA AAC(6′)-I ANT(4′)-I [13] | Antibacterial activity AG042 MRSA AAC(6′)-I ANT(4′)-I APH(2′) [14] | Antibacterial activity AG031 P. aer. APH(3′)-II (AG031 P. aer. APH(3′)-II) | Antibacterial activity AG032 P. aer. APH(3′)-II (AG032 P. aer. APH(3′)-II) | Antibacterial activity AG033 P. aer. APH(3′)-II AAC(6′)-I [15] | further results
1 | CNC1C(OC2OC(CO)C(N)C(O)C2O)OC2CC(N)C(OC3C(N)CC(N)C(O)C3OC3OC(CNC=O)C(OCCN)C3O)OC2C1O [DC186, 5-β-[3-O-(2-Aminoethyl)-5-deoxy-5-formamido-D-ribofuranosyl] apramycin] | > 32 | 60 | 69 | 105 | 2 to 4 | 1 | 1 to 2 | 16 to 32 | 8 | 2 | 4 | 2 | 32 | 2 | 4 | 4-8 | 4-8 | 16 | 32 | 64 | MIC [2]: 2 µg/mL (≈ 2.7 µM); MIC [3]: 2 µg/mL (≈ 2.7 µM); MIC [4]: 0.25 µg/mL (≈ 0.337 µM); MIC [5]: 2 µg/mL (≈ 2.7 µM); MIC (ATCC19977 M. abcessus): 8 µg/mL (≈ 10.8 µM); Activity E. coli pH430 WT [16]: 2; Activity E. coli AG103 armA [17]: 0.5-1; Activity E. coli pH424 armA [18]: 2; Activity E. coli pH425 rmtB [19]: 2; Activity E. coli pH426 rmtC [20]: 4; Activity E. coli pH427 rmtF [21]: 2; susceptibility to the APH(3′, 5″) resistance determinant [22]: circumvent this problem
2 | CNC1C(OC2OC(CO)C(N)C(O)C2O)OC2CC(N)C(OC3C(N)CC(N)C(O)C3OC3OC(CO)C(OC4OC(CN)C(O)C(O)C4N)C3O)OC2C1O (stereo not drawn) [DC138, 5-O-β-(Paromobiosyl) apramycin] | > 32 | 100 | 2.2 | 18 | 2 | 1 | 2 | 16 | 4 | 4 | 8 | 4 | 1-2 | 8 | 2-4 | 2-4 | 2 | 32-64 | 64 | 64 | activity against the IMM clinical isolates carrying the gene for AAC(3)-IV [1]: excellent antiribosomal and antibacterial activity; MIC [2]: 16 µg/mL (≈ 19.2 µM); MIC [3]: 2 µg/mL (≈ 2.4 µM); MIC [4]: 1 to 2 µg/mL (≈ 1.2 to 2.4 µM); MIC [5]: 4 µg/mL (≈ 4.81 µM); Activity E. coli pH430 WT [16]: 2; Activity E. coli AG103 armA [17]: <0.125; Activity E. coli pH424 armA [18]: 1; Activity E. coli pH425 rmtB [19]: 1; Activity E. coli pH426 rmtC [20]: 1; Activity E. coli pH427 rmtF [21]: 1; susceptibility to the APH(3′, 5″) resistance determinant [22]: susceptible
3 | CNC1C(OC2OC(CO)C(N)C(O)C2O)OC2CC(N)C(OC3C(N)CC(N)C(OCCO)C3O)OC2C1O (stereo not shown) [DC167, 6-O-(2-Hydroxyethyl)-apramycin] | > 32 | 180 | 379 | 382 | 16 | 4 | 8 | 32 | 16 | 16 | 16 | 16 | >128 | 8-16 | 16-32 | 16-32 | 64 | 32-64 | 32-64 | 64-128 | MIC (WT clinical isolates): 8 µg/mL (≈ 13.7 µM); MIC (isolates carrying apmA): > 64 µg/mL; MIC (ATCC19977 M. abcessus): 2 µg/mL (≈ 3.43 µM); Activity E. coli pH430 WT [16]: 8; Activity E. coli AG103 armA [17]: 4; Activity E. coli pH424 armA [18]: 8; Activity E. coli pH425 rmtB [19]: 16; Activity E. coli pH426 rmtC [20]: 16; Activity E. coli pH427 rmtF [21]: 16; target specificity for bacterial versus human rRNA (eukaryotic ribosomes): increased target specificity

— patent US11485751B2, “Apramycin derivatives” (WAYNE STATE UNIVERSITY, priority 2017, dated 2022)
